How the values were obtained:
Type in all cases: tissue-based
[1] = target: T1, Potassium-transporting ATPase (Sus scrofa) (UniProt P18434+P19156); assay: The compound was tested for its inhibitory activity against H+/K+ ATPase by using hog stomach membrane fractions at 4 uM
[2] = target: Potassium-transporting ATPase (Sus scrofa, UniProt P19156); assay: The compound was tested for its inhibitory activity against H+/K+ ATPase by using hog stomach membrane fractions (pH 6.4)
[3] = target: T1, Potassium-transporting ATPase (Sus scrofa); assay: The compound was tested for its inhibitory activity against H+/K+ ATPase by using hog stomach membrane fractions at 8 uM
[4] = target: T1, Potassium-transporting ATPase (Sus scrofa); assay: The compound was tested for its inhibitory activity against H+/K+ ATPase by using hog stomach membrane fractions (pH 6.4) at 4 uM
[5] = target: T1, Potassium-transporting ATPase (Sus scrofa); assay: The compound was tested for its inhibitory activity against H+/K+ ATPase by using hog stomach membrane fractions at 10 uM

Potassium-transporting ATPase, sequence (P18434 whole entry): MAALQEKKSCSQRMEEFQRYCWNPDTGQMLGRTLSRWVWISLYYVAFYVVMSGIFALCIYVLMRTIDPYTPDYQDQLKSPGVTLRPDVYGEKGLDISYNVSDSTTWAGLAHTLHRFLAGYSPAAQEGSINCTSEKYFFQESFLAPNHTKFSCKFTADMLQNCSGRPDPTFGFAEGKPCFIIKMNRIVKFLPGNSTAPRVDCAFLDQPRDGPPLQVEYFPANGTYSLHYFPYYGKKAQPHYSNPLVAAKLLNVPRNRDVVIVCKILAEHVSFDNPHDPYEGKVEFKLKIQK
Potassium-transporting ATPase, sequence (P19156 whole entry): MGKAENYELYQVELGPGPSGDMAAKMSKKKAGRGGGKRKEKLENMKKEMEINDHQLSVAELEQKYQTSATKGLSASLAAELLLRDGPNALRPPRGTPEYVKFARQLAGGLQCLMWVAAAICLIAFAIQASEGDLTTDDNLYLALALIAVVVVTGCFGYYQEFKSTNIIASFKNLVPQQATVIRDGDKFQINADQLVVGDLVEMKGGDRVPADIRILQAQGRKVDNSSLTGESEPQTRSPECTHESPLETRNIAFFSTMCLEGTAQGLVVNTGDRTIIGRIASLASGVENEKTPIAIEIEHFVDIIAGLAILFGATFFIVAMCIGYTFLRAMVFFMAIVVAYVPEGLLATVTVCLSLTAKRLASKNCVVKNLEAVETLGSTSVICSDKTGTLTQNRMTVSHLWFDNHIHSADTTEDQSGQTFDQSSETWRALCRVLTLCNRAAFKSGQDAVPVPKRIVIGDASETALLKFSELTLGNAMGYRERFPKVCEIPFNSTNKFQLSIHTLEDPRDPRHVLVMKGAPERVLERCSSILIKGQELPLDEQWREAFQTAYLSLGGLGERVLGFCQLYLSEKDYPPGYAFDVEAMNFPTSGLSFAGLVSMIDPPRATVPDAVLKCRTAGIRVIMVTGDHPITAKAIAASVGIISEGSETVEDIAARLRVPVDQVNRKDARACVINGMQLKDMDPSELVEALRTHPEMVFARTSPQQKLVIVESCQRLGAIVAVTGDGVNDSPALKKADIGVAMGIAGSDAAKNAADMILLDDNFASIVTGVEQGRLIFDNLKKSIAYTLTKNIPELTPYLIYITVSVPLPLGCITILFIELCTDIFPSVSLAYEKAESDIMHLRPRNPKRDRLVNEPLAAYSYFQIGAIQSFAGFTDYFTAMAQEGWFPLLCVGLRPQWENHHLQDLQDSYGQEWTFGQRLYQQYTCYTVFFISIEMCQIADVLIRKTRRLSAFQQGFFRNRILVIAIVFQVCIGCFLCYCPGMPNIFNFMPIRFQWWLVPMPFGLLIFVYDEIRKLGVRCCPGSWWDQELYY

## Cc1cnc(C(CO)Cc2cccc3ccccc23)cc1OCc1ccccn1 (stereo unspecified)
[1]
  inhibition: 21%

## Cc1cnc(C(CO)Cc2cccc3ccccc23)cc1OCC1CCCCC1 (stereo unspecified)
[2]
  IC50: 3.1 µM

## Cc1cnc(C(CO)Cc2cccc3ccccc23)cc1OCc1ccccc1O (stereo unspecified)
[2]
  IC50: 1.8 µM

## Cc1cnc(C(CO)Cc2cccc3ccccc23)cc1OC1CCCCC1 (stereo unspecified)
[2]
  IC50: 0.5 µM

## COc1ccccc1COc1cc(/C(=C\c2cccc3ccccc23)CO)ncc1C
[2]
  IC50: 1.7 µM

## Cc1cnc(C(CO)Cc2cccc3ccccc23)cc1OCCOc1ccccc1 (stereo unspecified)
[3]
  inhibition: 27%

## CC#CCOc1cc(C(CO)Cc2cccc3ccccc23)ncc1C (stereo unspecified)
[4]
  inhibition: 22%

## Cc1cnc(C(CO)Cc2cccc3ccccc23)cc1Oc1ccccc1 (stereo unspecified)
[5]
  inhibition: 36%

## CC(C)=CCOc1cc(C(CO)Cc2cccc3ccccc23)ncc1C (stereo unspecified)
[2]
  IC50: 3 µM

## Cc1cnc(/C(=C\c2cccc3ccccc23)CO)cc1OCc1ccccc1O
[2]
  IC50: 0.9 µM

## Cc1cnc(C(CO)Cc2cccc3ccccc23)cc1OCC(C)(C)C (stereo unspecified)
[2]
  IC50: 0.6 µM

Reference: ChEMBL document CHEMBL1151092, “Novel 4-substituted pyridine derivatives: Practical derivatization and biological profiles of reversible inhibitors” (Bioorg Med Chem Lett, 1997)
